The test system of this assay is rat pancreatic islets. Briefly: Protective effect on beta cell death: quantification of cytoplasmic nucleosomes (apoptosis, Cell Death Detection ELISA) in cultured rat islets with or without cytokine cocktail. It counts as cell-based. Here is the method:
Male Wistar rat islets (Elevage Janvier, Le Genest-St-Isle, France) were isolated using collagenase (Serva, Heidelberg, Germany) and cultured in RPMI at 11 mM glucose (Invitrogen, CA, USA) supplemented with 10% FCS (Fetal Calf Serum), 100 Units/ml penicillin, 100 μg/ml streptomycin and 100 μg/ml gentamycin in low-attachment 24-well plates (Corning, NY, USA). These islets were incubated with a cocktail of rat cytokines (TNF-alpha, IL-1beta and INF-gamma each at 2 ng/ml) for 24 hours (Brun T. et al., 2004 and 2007). […] Aliquots of the medium were used to measure insulin accumulated during the culture period using immune enzyme assay kits (Brunchwig, Basel, Switzerland). Furthermore, quantification of cytoplasmic nucleosomes, a direct indicator of apoptosis, was performed with the Cell Death Detection ELISA kit (Roche, Basel, Switzerland). Each condition was tested with 50 rat islets in duplicate and four independent experiments were performed. The results are provided as mean+/−sem and statistical analyses were performed using one-way ANOVA with Bonferroni and Dunnett post-hoc tests.
The conditions without cytokines allowed the analysis of the specific effect of the compound on islets while the combination of the drug with cytokines allowed the study of the effect of Imeglimin on islets under an inflammatory stress. To measure cell death in islets, quantification of cytoplasmic nucleosomes in islet cells, a consequence of DNA fragmentation during apoptosis (Robertson et al., 2000), was performed. […] Furthermore, a negative control and a positive control were added to the conditions with and without cytokines to test the effectiveness of the protocol. […] The results of the quantification of cell death for each condition are presented on FIG. 1.

[1] abbreviates: with cytokines (TNF-alpha, IL-1beta, INF-gamma each 2 ng/ml, 24 hours), 100 μM.

For `CC1N=C(N)NC(N(C)C)=N1.Cl` (single isomer, unassigned; (+)) [(+)-2-amino-3,6-dihydro-4-dimethylamino-6-methyl-1,3,5-triazine hydrochloride], the “protective properties against apoptosis on cultured rat islets” value (basal and inflammation-like apoptosis) is “protective properties against basal and inflammation-like apoptosis”. Further, the “protection of islets from the cytokine stress” value (both doses (100 μM and 1 mM), cytokine cocktail 24 hours) is on record as “completely protected”. Further, the “less apoptosis than cytokine-stressed islets” value is, setting by setting: under setting [1], 37%; (with cytokines, 1 mM) 25%. The “less apoptosis than untreated islets” value was determined as 29% under setting [1]; 16% (with cytokines, 1 mM); 10% (without cytokines, 100 μM, 24 hours culture). Moreover, where the note is “with cytokines, lower concentration tested (100 μM) vs Exe-4 10 nM”, the “potency relative to Exendin-4 (more potent)” value was about 50%. Under “without cytokines, 100 μM vs Exe-4 10 nM”, the “level of protection relative to the Exendin-4 level” value is “two thirds”.

In the case of Exendin-4 [reference compound], where the note is “with cytokines, Exe-4 10 nM”, the “drop in apoptosis vs cytokine-stressed islets” value was 29% and the “drop in apoptosis vs untreated islets” value is recorded as 20%. Further, the “decrease in cell death” value (without cytokines, Exe-4 10 nM, vs untreated islets) is 16%.

For the origin of these results see US9271984B2, “Treatment of type 1 diabetes” (POXEL, priority 2010, dated 2016).
